From patent US12661398B2, “Combination of a PD-1 antagonist, a VEGFR/FGFR/RET tyrosine kinase inhibitor and a CBP/beta-catenin inhibitor for treating cancer” (Eisai R&D Management Co., Ltd., priority 2019, dated 2026)

System: mouse Renal cell carcinoma cell line RAG
Experiment: Subcutaneous (s.c.) RAG transplantation model, anti-tumor effect of triple combination (Example 1)
Type: in vivo
Conditions: for CR rate: 28 days of administration
Text: An Eagle's minimal essential medium (E-MEM) containing 10% fetal bovine serum (FBS) and penicillin/streptomycin (100 unit/mL each) was used to culture a mouse Renal cell carcinoma cell line RAG (ATCC number: CCL-142). Logarithmic growing cells were collected from flasks using Trypsin-EDTA. The suspension of cells was centrifuged to remove the supernatant. Next, Hanks' Balanced Salt Solution (HBSS) was used to prepare a cell suspension having a concentration of 2.5×10^7 cells/mL. The cell suspension was subcutaneously transplanted at a dose of 0.1 mL on the right lateral side of the body of each of 7-week-old mice (BALB/cAnNCrlCrlj, female, Charles River Laboratories Japan Inc.). Eight (8) days after the transplantation, an electronic digital caliper (Digimatic™ Caliper; Mitutoyo Corporation) was used to measure the short and long diameters of a tumor of interest. The following equations were used to calculate the tumor volume TV and RTV. Tumor Volume TV (mm^3)=Long Diameter (mm)×Short Diameter (mm)×Short Diameter (mm)/2 EQ. 1: Relative Tumor Volume RTV=TV on day n/TV on day1 EQ. 2:
Based on the tumor volumes on the first day of administration, grouping was carried out such that the average values of the tumor volumes were almost the same. A 1 mg/ml solution of lenvatinib was prepared using 3 mM HCl and was orally administered at a dose of 0.2 mL/20 g mouse body weight once daily for 28 days. 0.2 mL of an administration sample containing 1.0 mg/mL of an anti-mouse-PD-1 antibody (Clone: RMP1-14, BioXCell, Catalog #: BE0146), which had been diluted with PBS, was intraperitoneally administered (at a dosage of 200 μg/mouse) twice a week a total of 8 times (day 1, day 4, day 8, day 11, day 15, day 18, day 22, and day 25, with the day of the grouping set to day 1). A 2.5 mg/ml solution of E7386 was prepared using 0.1 M HCl and was orally administered at a dose of 0.2 mL/20 g mouse body weight once daily for 28 days. To the control group, nothing was administered. Each group including 8 mice was used to conduct the experiment. Twice a week (day 1, day 4, day 8, day 11, day 15, day 18, day 22, day 25, and day 29), the respective tumor volumes (TV) were determined for the control group, the lenvatinib administration group, the anti-mouse-PD-1 antibody administration group, lenvatinib+anti-mouse-PD-1 antibody administration group, E7386+lenvatinib administration group and triple combination group. The values obtained by logarithmically transforming the tumor volumes were used to carry out statistical analysis by repeated measured Dunnet's multiple comparison. E7386 is (6S,9aS)-N-benzyl-8-({6-[3-(4-ethylpiperazin-1-yl)azetidin-1-yl]pyridin-2-yl}methyl)-6-(2-fluoro-4-hydroxybenzyl)-4,7-dioxo-2-(prop-2-en-1-yl)hexahydro-2H-pyrazino[2,1-c][1,2,4]triazine-1(6H)-carboxamide.

[1] = Day 1 (day of grouping, first administration), BALB/c mice

Row | Structure (SMILES) | CR rate (BALB/c mice) | tumor volume (TV) [1] [mm^3] | tumor volume (TV) (Day 4, BALB/c mice) [mm^3] | tumor volume (TV) (Day 8, BALB/c mice) [mm^3] | tumor volume (TV) (Day 11, BALB/c mice) [mm^3] | tumor volume (TV) (Day 15, BALB/c mice) [mm^3] | tumor volume (TV) (Day 18, BALB/c mice) [mm^3] | tumor volume (TV) (Day 22, BALB/c mice) [mm^3] | tumor volume (TV) (Day 25, BALB/c mice) [mm^3] | tumor volume (TV) (Day 29, BALB/c mice) [mm^3]
1 | C=CCN1CC(=O)N2[C@@H](Cc3ccc(O)cc3F)C(=O)N(Cc3cccc(N4CC(N5CCN(CC)CC5)C4)n3)C[C@@H]2N1C(=O)NCc1ccccc1 [E7386, (6S,9aS)-N-benzyl-8-({6-[3-(4-ethylpiperazin-1-yl)azetidin-1-yl]pyridin-2-yl}methyl)-6-(2-fluoro-4-hydroxybenzyl)-4,7-dioxo-2-(prop-2-en-1-yl)hexahydro-2H-pyrazino[2,1-c][1,2,4]triazine-1(6H)-carboxamide] | 1 out of 8 mice | 62 | 93 | 148 | 210 | 301 | 408 | 588 | 723 | 923
2 | COc1cc2nccc(Oc3ccc(NC(=O)NC4CC4)c(Cl)c3)c2cc1C(N)=O [Lenvatinib, 4-[3-chloro-4-(cyclopropylaminocarbonyl)aminophenoxy]-7-methoxy-6-quinolinecarboxamide] | 0 out of 8 mice | 62 | 82 | 102 | 134 | 152 | 175 | 162 | 166 | 151
